Patent US10342846B2, “Nanoparticle drug delivery systems” (University of Notre Dame du Lac, priority 2013, dated 2019)
“Also recorded” adds a separate entry of the source. Like-named read-outs stand apart in the source and are kept apart here.

How the values were obtained:
[1] = MM xenograft mouse model, body weight / systemic toxicity; assay type: in vivo, C.B.-17 SCID mice; conditions: 1 mg/kg bortezomib equivalent, intravenous, days 1, 4, 8, and 11
Method: MM Xenograft Mouse Model. C.B.-17 SCID mice (Harlan Laboratories) were irradiated with 150 rad and were inoculated subcutaneously with 5×10^6 NCI-H929 cells. When tumors were palpable, mice were distributed into 6 groups of 5 mice and were treated intravenously with the various bortezomib pro-drugs, free bortezomib, or vehicle (PBS), on days 1, 4, 8, and 11. Animals were monitored for body weight and tumor volume.
Liposomal Pro-Drugs Inhibit Tumor Growth with Reduced Systemic Toxicity In Vivo. […] Thus, in vivo studies were performed on C.B-17 SCID mice injected with NCI-H929 tumors to evaluate the efficacy of the liposomal pro-drugs in inhibiting tumor growth and limiting toxicity. The mice were divided into six groups (control, free bortezomib, and one group for each pro-drug) of five mice. The mice were monitored for body weight and tumor volume every other day. When the tumors became palpable, intravenous injections of the respective bortezomib formulations at a dose of 1 mg/kg bortezomib equivalent nanoparticles were performed on days 1, 4, 8, and 11.

[2] = system: MCF7 cells (very low HER2 expression); assay: Cellular binding assay, flow cytometry (MCF7); conditions: fluorescein labeled peptide, negative control cell line
Method: (§1) HER2 or VLA-4 Expression Analysis and Cell-Based Peptide Binding Assays. For antibody binding assays, cells were incubated with the primary antibody in binding buffer (1.5% BSA in PBS pH 7.4) on ice for 1 hour and were washed twice. Fluorescein conjugated secondary antibody was added for 1 hour on ice, samples were washed, and analyzed on Guava easyCyte 8HT flow cytometer (Millipore). For cell-based peptide binding assays, cells were incubated with increasing concentrations of fluorescein-conjugated peptides for 2 hours on ice. Samples were washed twice and analyzed on Guava easyCyte 8HT flow cytometer.

[3] = target: extracellular HER2 domain (Homo sapiens, UniProt P04626); conditions: reported by Berezov et al., recombinant soluble HER2 protein; cited from earlier work
[4] = system: VLA-4-overexpressing multiple myeloma cells; assay: In vitro nanoparticle uptake, result stated jointly for the myeloma lines; assay type: cell-based; conditions: competition experiment, NCI-H929 and MM.1S
Method: In Vitro Liposome Uptake and Binding Assays. 1×10^5 cells/well were plated 24 hours prior to each experiment in a 24 well dish. Liposomes were added at 100 μM phospholipid concentration and incubated for 3 hours at 37° C. 0.2% fluorescein PE was added as a fluorescent marker to each liposomal formulation. For adherent cells, after incubation, cells were washed 3 times with PBS, trypsinized, and analyzed via flow cytometry. For suspension cells, after incubation, cells were washed 3 times with PBS and analyzed via flow cytometry. For binding assays, adherent cells were scraped from the surface of a confluent dish, placed in growth media, and incubated on ice for 30 minutes. Liposomes were added at variable concentrations and incubated for 2 hours on ice. After incubation, cells were washed 3 times with PBS and analyzed via flow cytometry.
In Vitro Nanoparticle Uptake Assays. 1×10^5 cells/well were plated 24 hours prior to each experiment in a 24 well dish. Nanoparticles were added at 100 μM phospholipid concentration and incubated for 3 hours at 37° C. […] For suspension cells, after incubation, cells were washed 3 times with PBS and analyzed via flow cytometry. For adherent cells, after incubation, cells were washed 3 times with PBS, trypsinized, and analyzed via flow cytometry.

[5] = system: NCI-H929 myeloma cells (VLA-4 expressing); assay: Cell-based peptide binding assay (NCI-H929); conditions: fluorescein labeled peptide, flow cytometry, read-out: apparent Kd
Method: as §1
Receptor Expression Analysis and Cell-Based Peptide Binding Assays. For VLA-4 expression assays, cells were incubated with anti-CD49d (phycoerythrin) or anti-CD29 (fluorescein) antibodies (BD Biosciences, San Jose, Calif.) in binding buffer (1.5% BSA in PBS pH 7.4) on ice for 1 hour and were washed twice. For HER2 expression assays, cells were incubated with primary antibody in binding buffer on ice for 1 hour and washed twice. Fluorescein conjugated secondary antibody was added for 1 hour on ice, samples were washed, and analyzed on Guava easyCyte 8HT flow cytometer (Millipore). Isotype matched antibodies were used as negative controls. […] Samples were washed twice and analyzed on Guava easyCyte 8HT flow cytometer.

[6] = system: MM.1S myeloma cells (VLA-4 expressing); assay: Cell-based peptide binding assay (MM.1S); conditions: fluorescein labeled peptide, MM.1S cells, flow cytometry; read-out: apparent Kd
Method: Receptor Expression Analysis and Cell-Based Peptide Binding Assays. For VLA-4 expression assays, cells were incubated with anti-CD49d (phycoerythrin) or anti-CD29 (fluorescein) antibodies (BD Biosciences, San Jose, Calif.) in binding buffer (1.5% BSA in PBS pH 7.4) on ice for 1 hour and were washed twice. For HER2 expression assays, cells were incubated with primary antibody in binding buffer on ice for 1 hour and washed twice. Fluorescein conjugated secondary antibody was added for 1 hour on ice, samples were washed, and analyzed on Guava easyCyte 8HT flow cytometer (Millipore). Isotype matched antibodies were used as negative controls. For cell-based peptide binding assays, cells were incubated with increasing concentrations of fluorescein-conjugated peptides for 2 hours on ice. Samples were washed twice and analyzed on Guava easyCyte 8HT flow cytometer.

With `CC(C)C[C@H](NC(=O)[C@H](Cc1ccccc1)NC(=O)c1cnccn1)B(O)O` [free bortezomib, bortezomib] the “systemic toxicity” value [1] was “moribundity on day 7; also recorded: moribundity by day 7”.
For YCDGFYACYMDV [HER2-pep], the “binding to MCF7 cells” value [2] is listed as “minimal binding” and the Kd [3] is listed as 150 nM.
With YCDPC [VLA4-pep] the “inhibition of uptake of VLA-4-targeted liposomes by excess free peptide” value ([4]; LPVLA4pep(K3)) was “efficient inhibition of uptake”, the “inhibition of uptake of VLA-4-targeted micelles by free peptide” value ([4]; micelles with VLA4pep(K3)) was “significant inhibition” and the Kd ([5]; listed as VLA4pep) was 250 nM. The Kd [5] was roughly 250 nM and the Kd [6] was 250 nM.
